Data as given in publication PMC12136037, “Type II kinase inhibitors that target Parkinson’s disease–associated LRRK2” (Science Advances, 2025).

Key:
Assay in all cases: DSF 100 kinase selectivity screen;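 also: compound tested at 20 µM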
Format in all cases: binding
[1] = molecular target: T1, ~100 representative kinases (Homo sapiens, UniProt Q8TF76); details: protein GSG2; average of three replicates
T1 construct: Recombinant protein kinase domains with a concentration of 2 μM
T1 sequence (Q8TF76 1-798): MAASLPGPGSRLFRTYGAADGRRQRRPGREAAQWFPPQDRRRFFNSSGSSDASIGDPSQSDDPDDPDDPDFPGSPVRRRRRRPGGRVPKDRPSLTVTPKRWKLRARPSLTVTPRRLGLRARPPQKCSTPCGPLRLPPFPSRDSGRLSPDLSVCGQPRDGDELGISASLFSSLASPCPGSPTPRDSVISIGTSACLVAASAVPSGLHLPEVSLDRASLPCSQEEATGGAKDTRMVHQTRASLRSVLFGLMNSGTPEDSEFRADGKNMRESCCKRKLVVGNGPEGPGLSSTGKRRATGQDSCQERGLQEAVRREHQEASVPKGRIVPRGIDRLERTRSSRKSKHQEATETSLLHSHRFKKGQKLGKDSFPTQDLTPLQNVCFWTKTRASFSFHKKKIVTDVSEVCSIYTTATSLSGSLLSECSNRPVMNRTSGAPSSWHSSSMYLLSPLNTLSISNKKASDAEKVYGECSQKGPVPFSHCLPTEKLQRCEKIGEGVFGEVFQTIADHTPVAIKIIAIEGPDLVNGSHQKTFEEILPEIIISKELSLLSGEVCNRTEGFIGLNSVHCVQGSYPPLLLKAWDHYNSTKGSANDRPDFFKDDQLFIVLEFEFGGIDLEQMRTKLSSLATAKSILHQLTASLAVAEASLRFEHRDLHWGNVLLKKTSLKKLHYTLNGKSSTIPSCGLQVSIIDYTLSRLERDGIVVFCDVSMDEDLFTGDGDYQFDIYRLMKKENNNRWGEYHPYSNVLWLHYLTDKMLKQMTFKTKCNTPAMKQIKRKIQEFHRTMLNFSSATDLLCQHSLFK
Procedure, shortened: (§1)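 Each kinase domain, at 2 μM, is mixed with 20 μM test compound and SYPRO Orange in Hepes (20 mM, pH 7.5) with 500 mM NaCl. Temperature is then raised at 3°C/min and fluorescence-monitored unfolding yields the melting temperature change, ΔTm in degrees Celsius.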

[2] = molecular target: T2, ~100 representative kinases (Homo sapiens, UniProt Q9H2X6); details: protein HIPK2; average of three replicates
T2 construct: Recombinant protein kinase domains with a concentration of 2 μM
Procedure, shortened: as §1

[3] = molecular target: T3, ~100 representative kinases (Homo sapiens, UniProt Q00532); details: Protein CDKL1; average of three replicates
T3 construct: Recombinant protein kinase domains with a concentration of 2 μM
Procedure, shortened: as §1

[4] = molecular target: T4, ~100 representative kinases (Homo sapiens, UniProt Q9H4A3); details: Protein WNK1; DSF; average of three replicates
T4 construct: Recombinant protein kinase domains with a concentration of 2 μM
Procedure, shortened: as §1

[5] = molecular target: T5, ~100 representative kinases (Homo sapiens, UniProt Q16566); details: Protein CAMK4; average of three replicates
T5 construct: Recombinant protein kinase domains with a concentration of 2 μM
T5 sequence (Q16566 1-473): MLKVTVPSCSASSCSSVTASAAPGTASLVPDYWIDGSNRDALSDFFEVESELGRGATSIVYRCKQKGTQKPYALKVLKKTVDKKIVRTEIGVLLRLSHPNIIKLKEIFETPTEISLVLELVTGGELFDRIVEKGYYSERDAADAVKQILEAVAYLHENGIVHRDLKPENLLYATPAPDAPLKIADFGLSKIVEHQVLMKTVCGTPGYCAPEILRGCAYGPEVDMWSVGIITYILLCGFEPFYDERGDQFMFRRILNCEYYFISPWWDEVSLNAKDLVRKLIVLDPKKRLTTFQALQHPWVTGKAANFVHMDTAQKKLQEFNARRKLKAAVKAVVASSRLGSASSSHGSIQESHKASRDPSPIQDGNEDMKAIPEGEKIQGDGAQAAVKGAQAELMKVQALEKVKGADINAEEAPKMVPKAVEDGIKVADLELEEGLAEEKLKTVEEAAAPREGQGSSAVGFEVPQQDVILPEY
Procedure, shortened: as §1

[6] = molecular target: T6, ~100 representative kinases (Homo sapiens, UniProt Q15375); details: Protein EPHA7; average of three replicates
T6 construct: Recombinant protein kinase domains with a concentration of 2 μM
Procedure, shortened: as §1

[7] = molecular target: T7, ~100 representative kinases (Homo sapiens, UniProt P12931); details: Protein SRC; DSF; average of three replicates
T7 construct: Recombinant protein kinase domains with a concentration of 2 μM
Procedure, shortened: as §1

T2 sequence (Q9H2X6 whole entry, the tested form may be a part): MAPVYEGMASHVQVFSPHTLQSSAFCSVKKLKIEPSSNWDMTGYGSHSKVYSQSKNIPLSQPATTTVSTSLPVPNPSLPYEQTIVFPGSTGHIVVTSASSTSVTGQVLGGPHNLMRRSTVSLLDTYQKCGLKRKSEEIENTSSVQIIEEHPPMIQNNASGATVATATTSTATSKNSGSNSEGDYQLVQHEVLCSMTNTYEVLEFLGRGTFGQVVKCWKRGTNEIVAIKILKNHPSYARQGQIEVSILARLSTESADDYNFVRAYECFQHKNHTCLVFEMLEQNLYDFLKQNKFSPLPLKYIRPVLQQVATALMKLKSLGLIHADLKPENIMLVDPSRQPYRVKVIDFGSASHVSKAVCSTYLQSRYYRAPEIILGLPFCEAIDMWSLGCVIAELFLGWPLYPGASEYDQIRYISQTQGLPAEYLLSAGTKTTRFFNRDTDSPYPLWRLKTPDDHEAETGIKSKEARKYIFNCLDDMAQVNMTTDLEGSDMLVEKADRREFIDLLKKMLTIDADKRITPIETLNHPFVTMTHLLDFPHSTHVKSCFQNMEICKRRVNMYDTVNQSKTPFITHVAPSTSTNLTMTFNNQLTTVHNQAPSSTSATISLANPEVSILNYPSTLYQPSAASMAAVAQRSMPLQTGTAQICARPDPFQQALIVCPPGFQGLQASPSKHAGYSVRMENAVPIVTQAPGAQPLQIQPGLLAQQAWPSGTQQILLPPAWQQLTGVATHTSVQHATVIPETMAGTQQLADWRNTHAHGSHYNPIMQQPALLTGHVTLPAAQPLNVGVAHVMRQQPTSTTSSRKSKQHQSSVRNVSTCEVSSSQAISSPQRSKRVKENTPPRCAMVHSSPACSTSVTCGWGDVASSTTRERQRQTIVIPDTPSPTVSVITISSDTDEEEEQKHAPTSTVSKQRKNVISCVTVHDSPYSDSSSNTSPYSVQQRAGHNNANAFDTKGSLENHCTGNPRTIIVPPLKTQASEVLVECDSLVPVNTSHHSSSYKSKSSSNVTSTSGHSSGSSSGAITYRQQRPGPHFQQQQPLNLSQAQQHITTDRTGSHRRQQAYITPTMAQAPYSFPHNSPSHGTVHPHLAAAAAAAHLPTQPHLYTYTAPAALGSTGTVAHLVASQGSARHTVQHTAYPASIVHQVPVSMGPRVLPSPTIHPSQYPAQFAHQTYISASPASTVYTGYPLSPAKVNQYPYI
T4 sequence (Q9H4A3 whole entry, the tested form may be a part): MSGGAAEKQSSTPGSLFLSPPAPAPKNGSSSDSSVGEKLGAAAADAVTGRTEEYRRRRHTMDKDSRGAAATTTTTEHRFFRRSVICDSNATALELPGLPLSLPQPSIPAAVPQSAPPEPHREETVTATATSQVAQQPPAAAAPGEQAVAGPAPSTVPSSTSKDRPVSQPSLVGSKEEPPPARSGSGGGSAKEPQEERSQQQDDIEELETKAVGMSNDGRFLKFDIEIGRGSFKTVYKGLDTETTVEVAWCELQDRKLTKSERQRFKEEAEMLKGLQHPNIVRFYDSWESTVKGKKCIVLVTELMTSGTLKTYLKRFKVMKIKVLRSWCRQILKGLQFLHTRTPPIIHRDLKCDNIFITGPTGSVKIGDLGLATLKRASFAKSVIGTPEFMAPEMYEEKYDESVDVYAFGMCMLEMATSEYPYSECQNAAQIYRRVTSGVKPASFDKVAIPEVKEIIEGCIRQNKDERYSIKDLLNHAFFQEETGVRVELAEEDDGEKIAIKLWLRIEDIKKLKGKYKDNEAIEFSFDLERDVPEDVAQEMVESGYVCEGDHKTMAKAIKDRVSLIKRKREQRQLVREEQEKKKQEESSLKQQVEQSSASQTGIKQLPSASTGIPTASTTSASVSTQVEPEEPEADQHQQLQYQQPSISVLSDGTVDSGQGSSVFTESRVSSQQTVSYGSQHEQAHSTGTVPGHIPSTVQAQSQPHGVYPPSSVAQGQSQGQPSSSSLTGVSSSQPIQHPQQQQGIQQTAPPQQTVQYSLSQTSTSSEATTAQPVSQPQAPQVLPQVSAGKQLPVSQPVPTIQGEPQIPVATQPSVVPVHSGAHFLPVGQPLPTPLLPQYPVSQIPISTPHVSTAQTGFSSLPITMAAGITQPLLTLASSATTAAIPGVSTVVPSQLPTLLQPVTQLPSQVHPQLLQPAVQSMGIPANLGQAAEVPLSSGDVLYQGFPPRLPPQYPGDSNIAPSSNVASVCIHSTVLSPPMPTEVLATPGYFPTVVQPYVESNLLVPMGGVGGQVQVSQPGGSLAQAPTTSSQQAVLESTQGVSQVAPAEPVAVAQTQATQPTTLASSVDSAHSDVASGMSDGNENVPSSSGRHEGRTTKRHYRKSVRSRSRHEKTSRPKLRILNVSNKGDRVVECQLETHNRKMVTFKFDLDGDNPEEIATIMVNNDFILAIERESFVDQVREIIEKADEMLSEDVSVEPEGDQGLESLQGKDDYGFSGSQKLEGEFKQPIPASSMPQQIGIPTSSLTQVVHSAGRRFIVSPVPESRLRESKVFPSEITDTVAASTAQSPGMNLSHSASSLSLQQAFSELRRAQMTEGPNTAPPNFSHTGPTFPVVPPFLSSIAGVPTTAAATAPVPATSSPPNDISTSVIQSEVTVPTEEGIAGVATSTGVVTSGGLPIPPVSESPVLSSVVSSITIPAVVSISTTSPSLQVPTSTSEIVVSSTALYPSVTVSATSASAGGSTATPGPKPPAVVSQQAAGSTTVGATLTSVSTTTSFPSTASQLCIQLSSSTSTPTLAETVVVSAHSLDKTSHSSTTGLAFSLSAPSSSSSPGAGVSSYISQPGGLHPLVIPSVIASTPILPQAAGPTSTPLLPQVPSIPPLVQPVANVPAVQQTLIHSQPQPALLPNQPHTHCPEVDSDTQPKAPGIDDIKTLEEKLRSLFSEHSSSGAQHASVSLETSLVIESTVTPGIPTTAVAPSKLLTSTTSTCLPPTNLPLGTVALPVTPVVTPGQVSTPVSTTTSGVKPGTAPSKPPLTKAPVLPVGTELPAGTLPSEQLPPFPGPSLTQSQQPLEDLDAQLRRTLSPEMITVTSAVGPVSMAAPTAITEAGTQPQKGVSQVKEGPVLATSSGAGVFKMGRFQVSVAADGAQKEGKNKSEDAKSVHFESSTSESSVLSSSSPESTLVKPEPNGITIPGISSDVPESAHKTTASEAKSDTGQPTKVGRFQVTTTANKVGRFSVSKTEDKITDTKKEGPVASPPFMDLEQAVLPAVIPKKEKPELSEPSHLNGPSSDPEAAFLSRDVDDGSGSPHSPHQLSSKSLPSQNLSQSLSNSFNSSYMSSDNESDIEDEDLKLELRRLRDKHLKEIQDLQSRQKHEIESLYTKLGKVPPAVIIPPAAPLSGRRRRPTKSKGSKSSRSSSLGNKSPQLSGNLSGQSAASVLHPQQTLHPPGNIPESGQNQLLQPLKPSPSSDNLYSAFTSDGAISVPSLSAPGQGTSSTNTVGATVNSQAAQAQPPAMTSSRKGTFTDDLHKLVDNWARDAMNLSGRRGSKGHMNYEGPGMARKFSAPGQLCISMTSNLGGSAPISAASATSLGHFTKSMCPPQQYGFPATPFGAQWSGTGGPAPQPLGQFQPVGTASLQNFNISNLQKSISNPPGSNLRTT
T7 sequence (P12931 whole entry, the tested form may be a part): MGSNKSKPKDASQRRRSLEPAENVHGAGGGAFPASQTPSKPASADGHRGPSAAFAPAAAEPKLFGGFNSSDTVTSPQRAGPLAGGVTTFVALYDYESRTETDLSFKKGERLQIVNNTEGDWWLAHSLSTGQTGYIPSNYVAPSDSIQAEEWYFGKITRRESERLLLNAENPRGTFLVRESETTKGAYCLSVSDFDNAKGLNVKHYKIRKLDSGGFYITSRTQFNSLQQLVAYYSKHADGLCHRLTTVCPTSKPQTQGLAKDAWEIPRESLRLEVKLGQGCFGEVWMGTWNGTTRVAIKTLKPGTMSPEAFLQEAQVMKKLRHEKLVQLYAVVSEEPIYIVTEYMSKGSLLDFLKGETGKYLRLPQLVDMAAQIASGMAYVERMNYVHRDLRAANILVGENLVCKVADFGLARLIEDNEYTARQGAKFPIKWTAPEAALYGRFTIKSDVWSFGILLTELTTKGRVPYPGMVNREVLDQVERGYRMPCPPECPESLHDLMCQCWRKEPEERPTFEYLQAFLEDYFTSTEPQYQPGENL
T6 sequence (Q15375 28-998): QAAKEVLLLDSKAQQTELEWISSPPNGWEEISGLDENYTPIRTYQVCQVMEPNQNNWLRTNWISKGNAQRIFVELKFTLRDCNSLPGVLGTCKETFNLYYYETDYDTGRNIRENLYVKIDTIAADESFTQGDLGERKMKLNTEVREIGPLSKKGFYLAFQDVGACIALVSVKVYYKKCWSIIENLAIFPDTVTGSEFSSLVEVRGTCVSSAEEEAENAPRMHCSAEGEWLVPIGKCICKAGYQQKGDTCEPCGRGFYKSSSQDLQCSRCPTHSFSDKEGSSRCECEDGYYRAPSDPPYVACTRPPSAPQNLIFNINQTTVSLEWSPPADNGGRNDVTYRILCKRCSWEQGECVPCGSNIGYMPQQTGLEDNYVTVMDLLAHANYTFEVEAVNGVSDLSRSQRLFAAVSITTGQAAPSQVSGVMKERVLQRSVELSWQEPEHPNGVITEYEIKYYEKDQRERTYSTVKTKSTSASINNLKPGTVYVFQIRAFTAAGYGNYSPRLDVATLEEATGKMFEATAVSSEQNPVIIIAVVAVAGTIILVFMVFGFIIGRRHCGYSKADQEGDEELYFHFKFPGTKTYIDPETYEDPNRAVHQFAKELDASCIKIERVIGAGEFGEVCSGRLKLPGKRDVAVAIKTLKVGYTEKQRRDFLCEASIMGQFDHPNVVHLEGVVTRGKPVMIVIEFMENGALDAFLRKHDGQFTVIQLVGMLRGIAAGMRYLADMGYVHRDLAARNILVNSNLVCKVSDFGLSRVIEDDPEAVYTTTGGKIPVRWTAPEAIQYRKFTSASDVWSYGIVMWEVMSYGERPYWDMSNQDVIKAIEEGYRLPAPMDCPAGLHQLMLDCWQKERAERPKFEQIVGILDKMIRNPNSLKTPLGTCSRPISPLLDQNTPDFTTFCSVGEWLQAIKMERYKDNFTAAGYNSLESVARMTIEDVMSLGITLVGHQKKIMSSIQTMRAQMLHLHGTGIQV

Row | SMILES | dTm [1] | dTm [2] | dTm [3] | dTm [4] | dTm [5] | dTm [6] | dTm [7]
1 | O=C(Nc1cccc(-c2c[nH]c3ncnc(N4CCOCC4)c23)c1)C1(C(=O)Nc2ccc(F)c(Br)c2F)CC1 [Compound 26] | -2.00 K | 2.07 K | 1.85 K | 1.13 K | 1.91 K | 1.95 K | -0.13 K
2 | O=C(Nc1cc(F)cc(Br)c1)C1(C(=O)Nc2cccc(-c3c[nH]c4ncnc(N5CCOCC5)c34)c2)CC1 [Compound 27] | -3.53 K | 1.50 K | 0.61 K | 0.64 K | 0.92 K | 2.33 K | 0.35 K
3 | CC(C)(C)c1cc(NC(=O)Nc2cccc(-c3c[nH]c4ncnc(N5CCOCC5)c34)c2)n(-c2ccc3ncccc3c2)n1 [Compound 28] | -2.39 K | 9.47 K | 8.21 K | 1.32 K | 3.69 K | 1.92 K | 7.10 K
4 | Cc1ccc(-n2nc(C(C)(C)C)cc2NC(=O)Nc2cccc(-c3c[nH]c4ncnc(N5CCOCC5)c34)c2)cc1 [Compound 29] | -2.91 K | 9.24 K | 10.84 K | 1.43 K | 2.94 K | 2.68 K | 5.51 K
5 | Cc1ccc(-n2nc(C(C)(C)C)cc2NC(=O)Nc2cccc(-c3c[nH]c4nc(Cl)nc(N5CCOCC5)c34)c2)cc1 [Compound 30] | -1.55 K | 1.85 K | 3.90 K | -0.58 K | -1.02 K | 0.22 K | 0.05 K
6 | CC(=O)N1CCN(c2nc(Cl)nc3[nH]cc(-c4cccc(NC(=O)Nc5cc(C(C)(C)C)nn5-c5ccc(C)cc5)c4)c23)CC1 [Compound 31] | -3.39 K | 2.23 K | 5.56 K | 0.46 K | -0.77 K | 0.34 K | 0.41 K
7 | CCSc1nc(NC)c2c(-c3cccc(NC(=O)Nc4cc(C(C)(C)C)nn4-c4ccc(C)cc4)c3)c[nH]c2n1 [Compound 32] | 0.63 K | 0.31 K | 9.64 K | 0.83 K | 0.28 K | 0.38 K | 0.61 K
8 | COc1cc(C(=O)N2CCOCC2)c(F)cc1Nc1nc(N(C)C)c2c(Cl)c[nH]c2n1 [Compound 36] | -1.75 K | 0.93 K | 0.37 K | 0.40 K | 1.63 K | 2.27 K | 0.60 K
9 | COc1cc(S(C)(=O)=O)ccc1Nc1nc(N(C)C)c2c(Cl)c[nH]c2n1 [Compound 37] | 0.32 K | 0.11 K | 0.44 K | 0.04 K | -0.60 K | 0.12 K | 0.09 K
10 | CCNc1nc(Nc2cc(F)c(C(=O)N3CCOCC3)cc2OC)ncc1C(F)(F)F [GNE-7915] | -0.09 K | 0.82 K | 0.08 K | -0.0645 K | 0.15 K | -0.20 K | -0.11 K
11 | Cc1ccc(C(=O)Nc2ccc(CN3CCN(C)CC3)c(C(F)(F)F)c2)cc1C#Cc1cnc2[nH]ncc2c1 [GZD-824, reference compound] | 0.04 K | 1.22 K | 4.34 K | 0.53 K | 0.32 K | 1.51 K | 2.45 K
12 | C[C@@H]1CN(c2cc(-c3n[nH]c4ccc(OC5(C)CC5)cc34)ncn2)C[C@H](C)O1 [MLi2] | 0.08 K | 0.22 K | -0.11 K | 0.19 K | 1.22 K | 0.12 K | 0.28 K
13 | Cn1cc(-c2c[nH]c3ncnc(N4CCOCC4)c23)cc1C#N [PFE-360] | 2.32 K | 0.25 K | -0.24 K | 0.08 K | 0.56 K | -0.34 K | -0.08 K
